Measurements as given in patent US8536336B2, “Prodrug compounds useful as cannabinoid ligands” (AbbVie Inc., priority 2009, dated 2013).
Values after ≈ are worked out from the molar mass of the structure shown.

Key:
[1] = Solubility of prodrug in water or 0.1 N aqueous HCl (HPLC of filtrate); settings: thermodynamic from solid
Description: (§1) Approximately 3 mg of prodrug was weighed into a vial and 750 μL of water or 0.1 N aqueous HCl was added. The mixtures were vortexed to wet the solids. The mixtures were equilibrated for 1 hour with gentle agitation in a constant temperature water bath (T=25° C. for water samples and T=37° C. for 0.1 N HCl samples). After equilibration, the mixtures were visually inspected to assure that the amount of excess solid was sufficient to permit re-characterization. If not, solubility was reported as greater than the weighed concentration of prodrug (concentrations were confirmed by HPLC). The solid phase was then separated from the liquid phase by filtration through a 13 mm 0.45 μm GHP syringe filter (Pall Corporation). The filtrate was diluted as needed for quantification of the material studied by HPLC, and the concentration of the filtrate was reported as the solubility of the prodrug in the given medium.

physchem = settings: thermodynamic from solid
Description: as §1

[2] = In vivo regeneration of the parent compound after oral dosing of prodrug (plasma, HPLC-MS/MS); design: species or system Sprague-Dawley rats; settings: rat, oral aqueous formulation by gavage, blood samples for 24 hours
Description: Male Sprague-Dawley rats, weighing 250-400 g, were obtained from Charles Rivers Laboratories. For the initial screening, each prodrug was evaluated in one group of three rats. All rats received an oral aqueous formulation (suspension or solution), administered by gavage. Sequential blood samples were obtained from a tail vein of each animal for 24 hours after dosing. Plasma was separated by centrifugation and stored frozen until analysis. Compounds were selectively removed from the plasma using protein precipitation followed by reverse phase HPLC with MS/MS detection for quantitation. Attempts were made to measure both the prodrug and the parent compounds in each sample.

[3] = 0.1 N aqueous HCl, 37 °C, simulated gastric fluid

SMILES	solubility at 1 h [1, 3]	solubility at 1 h ([1]; water, 25 °C)	solubility at 1 h (physchem; 25 °C, water)	solubility at 1 h (physchem; 37 °C, simulated gastric fluid)	Parent (Example 18) detected in plasma after dosing the prodrug [2]	Prodrug detected in plasma after dosing the prodrug [2]
CCCCn1/c(=N/C(=O)c2cc(C(F)(F)F)ccc2OC[C@H](C)O)sc2cc[n+](COC(C)=O)cc21.[Br-] [Example 1, (2Z)-5-[(acetyloxy)methyl]-3-butyl-2-{[2-{[(2S)-2-hydroxypropyl]oxy}-5-(trifluoromethyl)benzoyl]imino}-2,3-dihydro[1,3]thiazolo[4,5-c]pyridin-5-ium bromide]	2500 µg/mL	1800 µg/mL				
CCCCn1/c(=N/C(=O)c2cc(C(F)(F)F)ccc2OC[C@H](C)OC(=O)C(C)(C)N)sc2ccncc21 [Example 2, (1S)-2-[2-({[(2Z)-3-butyl[1,3]thiazolo[4,5-c]pyridin-2(3H)-ylidene]amino}carbonyl)-4-(trifluoromethyl)phenoxy]-1-methylethyl 2-methylalaninate]	4100 µg/mL (≈ 7610 µM)	2300 µg/mL (≈ 4270 µM)				
CCCCn1/c(=N/C(=O)c2cc(C(F)(F)F)ccc2OC[C@H](C)OC(=O)CN)sc2ccncc21 [Example 3, (1S)-2-[2-({[(2Z)-3-butyl[1,3]thiazolo[4,5-c]pyridin-2(3H)-ylidene]amino}carbonyl)-4-(trifluoromethyl)phenoxy]-1-methylethyl glycinate]			1200 µg/mL (≈ 2350 µM)	> 4100 µg/mL		
CCCCn1/c(=N/C(=O)c2cc(C(F)(F)F)ccc2OC[C@H](C)O)sc2cc[n+](COC(=O)C(C)(C)C)cc21.[Cl-] [Example 4, (2Z)-3-butyl-5-{[(2,2-dimethylpropanoyl)oxy]methyl}-2-{[2-{[(2S)-2-hydroxypropyl]oxy}-5-(trifluoromethyl)benzoyl]imino}-2,3-dihydro[1,3]thiazolo[4,5-c]pyridin-5-ium chloride]	200 µg/mL	3300 µg/mL				
CCCCn1/c(=N/C(=O)c2cc(C(F)(F)F)ccc2OC[C@H](C)O)sc2cc[n+](COC(=O)c3ccccc3)cc21.[Cl-] [Example 5, (2Z)-5-[(benzoyloxy)methyl]-3-butyl-2-{[2-{[(2S)-2-hydroxypropyl]oxy}-5-(trifluoromethyl)benzoyl]imino}-2,3-dihydro[1,3]thiazolo[4,5-c]pyridin-5-ium chloride]	16 µg/mL	740 µg/mL				
CCCCn1/c(=N/C(=O)c2cc(C(F)(F)F)ccc2OC[C@H](C)OC(=O)[C@H](C)N)sc2ccncc21 [Example 6, (1S)-2-[2-({[(2Z)-3-butyl[1,3]thiazolo[4,5-c]pyridin-2(3H)-ylidene]amino}carbonyl)-4-(trifluoromethyl)phenoxy]-1-methylethyl L-alaninate]	> 4100 µg/mL	2300 µg/mL (≈ 4380 µM)				
CCCCn1/c(=N/C(=O)c2cc(C(F)(F)F)ccc2OC[C@H](C)O)sc2cc[n+](COC(=O)N3CCC[C@H]3C(=O)OC)cc21.[Cl-] [Example 7, (2Z)-3-butyl-2-{[2-{[(2S)-2-hydroxypropyl]oxy}-5-(trifluoromethyl)benzoyl]imino}-5-[({[(2S)-2-(methoxycarbonyl)pyrrolidin-1-yl]carbonyl}oxy)methyl]-2,3-dihydro[1,3]thiazolo[4,5-c]pyridin-5-ium chloride]	> 4300 µg/mL	> 4300 µg/mL				
CCCCn1/c(=N/C(=O)c2cc(C(F)(F)F)ccc2OC[C@H](C)O)sc2cc[n+](COC(=O)N(C)C)cc21.[Cl-] [Example 8, (2Z)-3-butyl-5-({[(dimethylamino)carbonyl]oxy}methyl)-2-{[2-{[(2S)-2-hydroxypropyl]oxy}-5-(trifluoromethyl)benzoyl]imino}-2,3-dihydro[1,3]thiazolo[4,5-c]pyridin-5-ium chloride]	> 4000 µg/mL	3900 µg/mL				
CCCCn1/c(=N/C(=O)c2cc(C(F)(F)F)ccc2OC[C@H](C)OP(=O)(O)O)sc2ccncc21 [Example 9, (1S)-2-[2-({[(2Z)-3-butyl[1,3]thiazolo[4,5-c]pyridin-2(3H)-ylidene]amino}carbonyl)-4-(trifluoromethyl)phenoxy]-1-methylethyl dihydrogen phosphate]	7 µg/mL	830 µg/mL				
CCCCn1/c(=N/C(=O)c2cc(C(F)(F)F)ccc2OC[C@H](C)O)sc2cc[n+]([O-])cc21 [Example 12, N-[(2Z)-3-butyl-5-oxido[1,3]thiazolo[4,5-c]pyridin-2(3H)-ylidene]-2-{[(2S)-2-hydroxypropyl]oxy}-5-(trifluoromethyl)benzamide]					Measurable concentrations	Measurable concentrations
CCCCn1/c(=N/C(=O)c2cc(C(F)(F)F)ccc2OC[C@H](C)OC(=O)CCC(=O)O)sc2ccncc21 [Example 14, 4-({(1S)-2-[2-({[(2Z)-3-butyl[1,3]thiazolo[4,5-c]pyridin-2(3H)-ylidene]amino}carbonyl)-4-(trifluoromethyl)phenoxy]-1-methylethyl}oxy)-4-oxobutanoic acid]			73 µg/mL (≈ 132 µM)	10 µg/mL (≈ 18.1 µM)		
CCCCn1/c(=N/C(=O)c2cc(C(F)(F)F)ccc2OC[C@H](C)OC(=O)NCCN(C)C)sc2ccncc21 [Example 15, (1S)-2-[2-({[(2Z)-3-butyl[1,3]thiazolo[4,5-c]pyridin-2(3H)-ylidene]amino}carbonyl)-4-(trifluoromethyl)phenoxy]-1-methylethyl 2-(dimethylamino)ethylcarbamate]	> 4000 µg/mL	680 µg/mL (≈ 1200 µM)			Measurable concentrations	Measurable concentrations
CCCCn1/c(=N/C(=O)c2cc(C(F)(F)F)ccc2OC[C@H](C)O)sc2ccncc21 [Example 18, N-[(2Z)-3-butyl[1,3]thiazolo[4,5-c]pyridin-2(3H)-ylidene]-2-{[(2S)-2-hydroxypropyl]oxy}-5-(trifluoromethyl)benzamide]	4.3 µg/mL (≈ 9.48 µM)	< 0.02 µg/mL				
